In article PMC7802075 (ACS Infectious Diseases, 2020):
Where a SMILES comes first, the peptide text is derived from it.

What follows are molecules tested against T1, LmjIPCS (inositol phosphorylceramide synthase from L. major) (Leishmania major, UniProt E9AFX2) (assay: biochemical). Conditions: not given.
T1 sequence (E9AFX2 1-338): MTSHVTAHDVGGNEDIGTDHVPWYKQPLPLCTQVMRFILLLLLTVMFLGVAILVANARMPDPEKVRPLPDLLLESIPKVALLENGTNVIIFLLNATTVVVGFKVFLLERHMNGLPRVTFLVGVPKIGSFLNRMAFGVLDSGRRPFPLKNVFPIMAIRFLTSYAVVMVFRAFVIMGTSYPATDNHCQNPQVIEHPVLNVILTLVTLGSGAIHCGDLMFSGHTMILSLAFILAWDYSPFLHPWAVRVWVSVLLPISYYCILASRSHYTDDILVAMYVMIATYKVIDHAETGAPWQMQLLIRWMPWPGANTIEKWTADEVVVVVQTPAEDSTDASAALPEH
Assay type: biochemical
Parameters: inhibition: dose or concentration left out as unconfirmed
For C[C@H]1C[C@H]2[C@@H]3CCC4=CC(=O)C=C[C@]4(C)[C@@]3(F)[C@@H](O)C[C@]2(C)[C@@]1(O)C(=O)CO [BETAMETHASONE], the “20mM inhibition LmjIPCS” value was 45%.
For C[C@@H](N)[C@@H](O)c1ccccc1 [1S,2R-PHENYLPROPANOLAMINE], the “20mM inhibition LmjIPCS” value was 19%.
In the case of CN(C)[C@@H]1C(O)=C(C(N)=O)C(=O)[C@@]2(O)C(O)=C3C(=O)c4c(O)ccc(Cl)c4[C@@](C)(O)[C@H]3C[C@@H]12 [CHLORTETRACYCLINE], the “20mM inhibition LmjIPCS” value is reported as 56%.
In the case of CN1C(=O)CC[C@H]1c1cccnc1 [COTININE], the “20mM inhibition LmjIPCS” value is reported as 34%.
For CC(=O)OCC1=C(C(=O)O)N2C(=O)[C@@H](NC(=O)CSc3ccncc3)[C@H]2SC1 [CEPHAPIRIN], the “20mM inhibition LmjIPCS” value was 47%.
With Oc1c(Br)cc(Br)c2cccnc12 [BROXYQUINOLINE] the “20mM inhibition LmjIPCS” value was 61%.
With CCCCCC(=O)O[C@]1(C(C)=O)CC[C@H]2[C@@H]3CCC4=CC(=O)CC[C@]4(C)[C@H]3CC[C@@]21C [HYDROXYPROGESTERONE CAPROATE] the “20mM inhibition LmjIPCS” value was 57%.
COc1ccc2c(c1)[C@]13CCCC[C@@H]1[C@H](C2)N(C)CC3 [DEXTROMETHORPHAN] was tested, and the “20mM inhibition LmjIPCS” value was 64%.
For Oc1ncnc2[nH]ncc12 [ALLOPURINOL], the “20mM inhibition LmjIPCS” value was 56%.
With HECOGENIN the “20mM inhibition LmjIPCS” value was 23%.
With NCCc1cc(O)c(O)cc1O [OXIDOPAMINE] the “20mM inhibition LmjIPCS” value was 65%.
In the case of OC(CCN1CCCCC1)(c1ccccc1)C1CCCCC1 (stereo not shown) [TRIHEXYPHENIDYL], the “20mM inhibition LmjIPCS” value is reported as 57%.
For CNC(C)C(O)c1ccccc1 (stereo not shown) [RACEPHEDRINE], the “20mM inhibition LmjIPCS” value was 41%.
For COc1ccc2c(c1)CC[C@@H]1[C@@H]2CC[C@]2(C)[C@@H](O)CC[C@@H]12 [ESTRADIOL METHYL ETHER], the “20mM inhibition LmjIPCS” value was 40%.
For CC(CCc1ccccc1)NCC(O)c1ccc(O)c(C(N)=O)c1 (stereo not shown) [LABETALOL], the “20mM inhibition LmjIPCS” value was 50%.

Same assay, conditions: NINDS set screen, single concentration printed as 20mM
CC12CC3CC(C)(C1)CC(N)(C3)C2 [MEMANTINE] was tested, and the “20mM inhibition LmjIPCS” value was 66%.
O=C1c2c(O)ccc(O)c2C(=O)c2c(NCCNCCO)ccc(NCCNCCO)c21 [MITOXANTHRONE] was tested, and the “20mM inhibition LmjIPCS” value was 63%.
With C#CCCCCCCCCCCCC(=O)CC(O)COC(C)=O (stereo not shown) [AVOCADYNONE ACETATE] the “20mM inhibition LmjIPCS” value was 67%.
O=C1C(O)=C([C@H]2CC[C@H](c3ccc(Cl)cc3)CC2)C(=O)c2ccccc21 [ATOVAQUONE] was tested, and the “20mM inhibition LmjIPCS” value was 46%.
For Oc1ccc(Cl)c2cccnc12 [CLOXYQUIN], the “20mM inhibition LmjIPCS” value was 59%.

Same assay, conditions: NINDS set screen; read-out: inhibition LmjIPCS
O=C1[C@H](CC[C@H](O)c2ccc(F)cc2)[C@@H](c2ccc(O)cc2)N1c1ccc(F)cc1 [EZETIMIBE] gave an inhibition of 23%.
In the case of CC(=O)O[C@]1(C(C)=O)CC[C@H]2[C@@H]3C[C@H](C)C4=CC(=O)CC[C@]4(C)[C@H]3CC[C@@]21C [MEDROXYPROGESTERONE ACETATE], the inhibition is reported as 17%.

Same assay, conditions: read-out: 20mM inhibition LmjIPCS
For Cc1ncc(CNC(=O)N(CCCl)N=O)c(N)n1 [NIMUSTINE], the inhibition at 20000 µM was 20%.
Work on CCCCCC1C(=O)CCC1CC(=O)OC (stereo not shown) [DIHYDROJASMONIC ACID, METHYL ESTER] yielded an inhibition at 20000 µM of -2%.
CC[C@@H](C(=O)[C@@H](C)[C@@H](O)[C@H](C)[C@@H]1O[C@@H]([C@@H](CC)C(=O)O)CC[C@@H]1C)[C@H]1O[C@]2(C=C[C@@H](O)[C@]3(CC[C@@](C)([C@H]4CC[C@](O)(CC)[C@H](C)O4)O3)O2)[C@H](C)C[C@@H]1C [SALINOMYCIN] was tested, and the inhibition at 20000 µM was 29%.
COc1cc([C@@H]2c3cc4c(c(O)c3C[C@H]3COC(=O)[C@@H]32)OCO4)cc(OC)c1OC [beta-PELTATIN] showed an inhibition at 20000 µM of -1.86%.
CC(C(=O)O)c1cccc(Oc2ccccc2)c1 (stereo not shown) [FENOPROFEN] was tested, and the inhibition at 20000 µM was 6%.
CC(C)C[C@H](NC(=O)CN)C(=O)N[C@@H](Cc1ccccc1)C(=O)O (H-Gly-Leu-Phe-OH) gave an inhibition at 20000 µM of 11%.
For CC(=O)Oc1ccccc1C(=O)O [ASPIRIN], the inhibition at 20000 µM was 23%.
For O=C(/C=C/C=C/c1ccc2c(c1)OCO2)N1CCCCC1 [PIPERINE], the inhibition at 20000 µM was 13%.
O=c1cc[nH]c(=S)[nH]1 [2-THIOURACIL] gave an inhibition at 20000 µM of 7%.
COc1cc(/C=C/C(=O)CC(=O)/C=C/c2ccc(O)c(OC)c2)ccc1O [CURCUMIN] showed an inhibition at 20000 µM of -10%.
With c1ccc2c(c1)CCCC2C1=NCCN1 (stereo not shown) [TETRAHYDROZOLINE] the inhibition at 20000 µM was 8%.
In the case of CC1=C(C(=O)O)N2C(=O)[C@@H](NC(=O)[C@H](N)c3ccccc3)[C@H]2SC1 [CEPHALEXIN], the inhibition at 20000 µM is reported as 5.26%.
Molecule C=CC1=C(C(=O)O)N2C(=O)[C@@H](NC(=O)/C(=N\O)c3csc(N)n3)[C@H]2SC1 has an inhibition at 20000 µM of 9%.
With NC(Cc1cc(I)c(Oc2cc(I)c(O)c(I)c2)c(I)c1)C(=O)O (stereo not shown) [THYROXINE] the inhibition at 20000 µM was 12%.
Work on [H]/N=C(/N)NS(=O)(=O)c1ccc(N)cc1 [SULFAGUANIDINE] yielded an inhibition at 20000 µM of -1.62%.
Molecule C#CC1(O)CC[C@H]2[C@@H]3CCC4=CC(=O)CC[C@@H]4[C@H]3CC[C@@]21CC (mixture of isomers) [NORGESTREL] has an inhibition at 20000 µM of 17%.
OC(CCN1CCCC1)(c1ccccc1)C1CCCCC1 (stereo not shown) [PROCYCLIDINE] showed an inhibition at 20000 µM of 22%.
NS(=O)(=O)c1cc(C(=O)O)c(NCc2ccco2)cc1Cl [FUROSEMIDE] showed an inhibition at 20000 µM of 5%.
CN(C)CCc1c[nH]c2ccc(CS(=O)(=O)N3CCCC3)cc12 [ALMOTRIPTAN] showed an inhibition at 20000 µM of 5%.
For NC(=O)c1ccc[n+]([C@@H]2O[C@H](COP(=O)([O-])OP(=O)(O)OC[C@H]3O[C@@H](n4cnc5c(N)ncnc54)[C@H](OP(=O)(O)O)[C@@H]3O)[C@@H](O)[C@H]2O)c1, the inhibition at 20000 µM was 7%.

Same assay, conditions: read-out: inhibition LmjIPCS
C#C[C@]1(O)CC[C@H]2[C@@H]3CCC4=Cc5oncc5C[C@]4(C)[C@H]3CC[C@@]21C [DANAZOL] showed an inhibition of 19%.
With CN1C(C(=O)Nc2ccccn2)=C(O)c2ccccc2S1(=O)=O [PIROXICAM] the inhibition was 15%.
Molecule CN1Cc2c(N)cccc2C(c2ccccc2)C1 (stereo not shown) [NOMIFENSINE] has an inhibition of 5%.
For N[C@@H]1CON=C1O [CYCLOSERINE], the inhibition was -1.4%.
With C[C@@H]1CC[C@H]2[C@@H](C)C(=O)O[C@@H]3O[C@@]4(C)CC[C@@H]1[C@]32OO4 [ARTEMISININ] the inhibition was 1.06%.
With COc1ccc(CN(CCN(C)C)c2ccccn2)cc1 [PYRILAMINE] the inhibition was 5.27%.
In the case of C[C@]12C=CC(=O)C=C1CC[C@@H]1[C@@H]2[C@@H](O)C[C@@]2(C)[C@H]1CC[C@]2(O)C(=O)CO [PREDNISOLONE], the inhibition is reported as 21%.
Oc1ccc(/C=C/c2cc(O)cc(O)c2)cc1 [RESVERATROL] showed an inhibition of -9%.

Same assay, conditions: screening of NINDS set, sheet Screen 1; read-out: inhibition LmjIPCS
COc1ccc2cc([C@H](C)CO)ccc2c1 [NAPROXOL] showed an inhibition of 4.4%.
COc1ccc(/C=C/c2cc(O)cc(O[C@@H]3O[C@H](CO)[C@@H](O)[C@H](O)[C@H]3O)c2)cc1O [RHAPONTIN] gave an inhibition of 3%.
With CC(C)[C@H](N)C(=O)N[C@@H](Cc1c[nH]c2ccccc12)C(=O)O [VALYLTRYPTOPHAN] (H-Val-Trp-OH) the inhibition was 6%.
CC(C)(C)NCC(O)COc1cccc2c1CC(O)C(O)C2 (stereo not shown) [NADOLOL] showed an inhibition of 9%.
CSC(N)=NCCC[C@H](N)C(=O)O [S-METHYL-L-THIOCITRULLINE ACETATE] showed an inhibition of 10%.
Work on C1N2CN3CN1CN(C2)C3 [METHENAMINE] yielded an inhibition of 6%.
Work on Cc1ccccc1OCC(O)CO (stereo not shown) [MEPHENESIN] yielded an inhibition of 3.35%.

Same assay, conditions: single concentration 20mM as printed; screening of NINDS set, sheet Screen 1
With CC(=O)OCC(=O)[C@@]1(O)CC[C@H]2[C@@H]3C[C@H](C)C4=CC(=O)C=C[C@]4(C)[C@H]3[C@@H](O)C[C@@]21C [6alpha-METHYLPREDNISOLONE ACETATE] the “20mM inhibition LmjIPCS” value was 9%.
